According to PubChem BioAssay (NCI):
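Here, GI50 denotes the concentration required for 50% inhibition of growth. TGI marks complete inhibition of growth.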

Assays:
Assay in all cases: NCI anticancer screen, dose series, 384-well format
[1] = system: OVCAR-5 ovarian
[2] = system: SF-268 CNS
[3] = system: HCT-116 colon
[4] = system: SF-295 CNS
[5] = system: NCI-H322M lung
[6] = system: SF-539 CNS
[7] = system: SK-MEL-2 melanoma
[8] = system: OVCAR-4 ovarian
[9] = system: SNB-19 CNS
[10] = system: NCI-H522 lung
[11] = system: MCF7 breast
[12] = system: NCI-H460 NSCLC
[13] = system: SK-MEL-28 melanoma
[14] = system: MALME-3M melanoma
[15] = system: HL-60(TB) leukemia
[16] = system: DU-145 prostate
[17] = system: LOX IMVI melanoma
[18] = system: BT-549 breast
[19] = system: MOLT-4 leukemia
[20] = system: SK-OV-3 ovarian
[21] = system: HOP-92 NSCLC
[22] = system: HCC-2998 colon
[23] = system: OVCAR-3 ovarian
[24] = system: UO-31 renal
[25] = system: TK-10 renal
[26] = system: CCRF-CEM leukemia
[27] = system: IGROV1 ovarian
[28] = system: OVCAR-8 ovarian
[29] = system: SW-620 colon
[30] = system: RPMI-8226 leukemia

In the case of `CO[C@H]1C[C@@H]2CC[C@@H](C)[C@@](O)(O2)C(=O)C(=O)N2CCCC[C@H]2C(=O)O[C@H]([C@H](C)C[C@@H]2CC[C@@H](OCCO)[C@H](OC)C2)CC(=O)[C@H](C)C=C(C)[C@@H](O)[C@@H](OC)C(=O)[C@H](C)C[C@H](C)/C=C/C=C/C=C1C`, the GI50 [1] was 15.2 µM, the TGI [1] was 29.1 µM and the GI50 [2] was 12.6 µM. The TGI [2] was 25.3 µM, the GI50 [3] was 8.33 µM and the TGI [3] was 21.9 µM. The TGI [4] was 16 µM, the GI50 [5] was 6.97 µM and the TGI [5] was 22.1 µM. For the same compound, the GI50 [6] was 3.06 µM, the TGI [6] was 19.7 µM and the GI50 [7] was 14.2 µM. It also gave a TGI [7] of 27.2 µM, a GI50 [8] of 10.8 µM and a TGI [8] of 24.1 µM. It also gave a GI50 [9] of 12.8 µM, a TGI [9] of 25.5 µM and a GI50 [10] of 9.37 µM. For the same compound, the TGI [10] was 22 µM, the GI50 [11] was < 0.0154 µM and the TGI [11] was 12.9 µM. It also gave a GI50 [12] of 0.377 µM, a TGI [12] of 18.7 µM and a GI50 [13] of 11.9 µM. For the same compound, the TGI [13] was 16.5 µM, the GI50 [14] was < 0.01 µM and the TGI [14] was 14.6 µM. It also gave a GI50 [15] of 2.16 µM, a TGI [15] of 6.09 µM and a GI50 [16] of 7.21 µM. It also gave a TGI [16] of 23.4 µM, a GI50 [17] of 6.02 µM and a TGI [17] of 20.9 µM. The TGI [18] was 15.6 µM, the GI50 [19] was < 0.01 µM and the TGI [19] was 2.24 µM. The GI50 [20] was 12.1 µM, the TGI [20] was 25.4 µM and the GI50 [21] was 11.2 µM. For the same compound, the TGI [21] was 23.4 µM, the GI50 [22] was 7.55 µM and the TGI [22] was 22.9 µM. For the same compound, the GI50 [23] was 4.68 µM, the TGI [23] was 21.8 µM and the GI50 [24] was < 0.01 µM. For the same compound, the GI50 [25] was 13.6 µM, the TGI [25] was 31 µM and the GI50 [26] was < 0.01 µM. For the same compound, the TGI [26] was 2.84 µM, the GI50 [27] was < 0.01 µM and the TGI [27] was 11.2 µM. It also gave a GI50 [28] of 10.9 µM, a TGI [28] of 22.8 µM and a GI50 [29] of 11.8 µM. The TGI [29] was 16.4 µM and the GI50 [30] was < 0.01 µM.
